Measured values published in patent US20240247024A1, “INHIBITORS OF NICOTINAMIDE N-METHYL TRANSFERASE (NNMT)” (UNIVERSITEIT LEIDEN, priority 2021, published 2024).
Read-outs that look alike come from different tables or passages of the source.

Tests used:
NNMT [1] = target: T1, NNMT (Homo sapiens, UniProt P40261); parameters: The enzymatic activity assays were performed using NNMT at a final concentration of 100 nM diluted in assay buffer; settings: known NNMT inhibitors, background section; read-out: IC50 against NNMT; cited from earlier work
T1 sequence (P40261 1-264): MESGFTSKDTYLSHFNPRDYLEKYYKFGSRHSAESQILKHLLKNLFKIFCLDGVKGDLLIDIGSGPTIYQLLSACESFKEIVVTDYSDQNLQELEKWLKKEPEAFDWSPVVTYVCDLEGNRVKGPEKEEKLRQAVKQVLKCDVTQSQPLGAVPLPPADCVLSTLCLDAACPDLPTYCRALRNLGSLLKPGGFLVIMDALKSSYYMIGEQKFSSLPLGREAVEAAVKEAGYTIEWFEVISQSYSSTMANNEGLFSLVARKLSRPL

[2] = test system: HSC-2 human oral cancer cell line; experiment: MTT cell proliferation assay, HSC-2; type: cell-based; settings: for % of DMSO control at 100 μM, HSC-2, 24 h: 24 h incubation; for % of DMSO control at 100 μM, HSC-2, 48 h: 48 h incubation; for % of DMSO control at 100 μM, HSC-2, 72 h: 72 h incubation
Procedure: (§1) UROTsa immortalized human urothelium cell line, HSC-2 human oral cancer cell line, T24 human bladder cancer cell line and A549 human lung cancer line were purchased from the American Type Culture Collection (ATCC, Rockville, MD, USA), and cultured in DMEM/F12 medium, supplemented with 10% fetal bovine serum and 50 μg/ml gentamicin, at 37° C. in a humidified 5% CO2 incubator. For each compound tested, powder was dissolved in DMSO at 100 mM concentration. This stock solution was then diluted in culture medium to final concentration values ranging between 1 μM and 100 μM. For each sample, DMSO was kept constant at 0.1% final concentration. The day before starting treatment, cells were seeded in 96-well plates, at a density of 2000 cells/well. Cells were allowed to attach overnight and then incubated with compounds at different final concentrations, or with DMSO only, for 24, 48 and 72 hours. All experiments were performed in triplicate.
(§2) Cell proliferation was determined using a colorimetric assay with 3-(4,5-dimethylthiazol-2-yl)-2,5-diphenyl tetrazolium bromide (MTT). The MTT assay measures the conversion of MTT to insoluble formazan by dehydrogenase enzymes of the intact mitochondria of living cells. Cell proliferation was evaluated by measuring the conversion of the tetrazolium salt MTT to formazan crystals upon treatment with compounds or DMSO only for 24, 48 and 72 hours. Briefly, cells were incubated for 2 hours at 37° C. with 100 μl fresh culture medium containing 5 μl of MTT reagent (5 mg/ml in PBS). The medium was removed and 200 μl isopropanol were added. The amount of formazan crystals formed correlated directly with the number of viable cells. The reaction product was quantified by measuring the absorbance at 540 nm using an ELISA plate reader. Experiments were repeated three times. Results were expressed as percentage of the control (control equals 100% and corresponds to the absorbance value of each sample at time zero) and presented as mean values±standard deviation of three independent experiments performed in triplicate.
(§3) Data were analysed using GraphPad Prism software for Windows (GraphPad Software, San Diego, CA). Significant differences between groups were determined using the one-way analysis of variance (ANOVA). A p value <0.05 was considered as statistically significant.

[3] = test system: T24 human bladder cancer cell line; experiment: MTT cell proliferation assay, T24; type: cell-based; settings: for % of DMSO control at 100 μM, T24, 24 h: 24 h incubation; for % of DMSO control at 100 μM, T24, 48 h: 48 h incubation; for % of DMSO control at 100 μM, T24, 72 h: 72 h incubation
Procedure: as §1, §2, §3

[4] = test system: A549 human lung cancer line; experiment: MTT cell proliferation assay, A549; type: cell-based; settings: for % of DMSO control at 100 μM, A549, 24 h: 24 h incubation; for % of DMSO control at 100 μM, A549, 48 h: 48 h incubation; for % of DMSO control at 100 μM, A549, 72 h: 72 h incubation
Procedure: as §1, §2, §3

high-fat DIO mice = settings: cited from earlier work
NNMT [5] = target: T1, NNMT; experiment: NNMT assay (HILIC-MS/MS, formation of MNA); settings: NA 200 μM, SAM 8.5 μM, maximum concentration tested 25 μM

| SMILES | IC50 (NNMT [1]) | % of DMSO control at 100 μM, HSC-2, 24 h [2] | % of DMSO control at 100 μM, HSC-2, 48 h [2] | % of DMSO control at 100 μM, HSC-2, 72 h [2] | % of DMSO control at 100 μM, T24, 24 h [3] | % of DMSO control at 100 μM, T24, 48 h [3] | % of DMSO control at 100 μM, T24, 72 h [3] | % of DMSO control at 100 μM, A549, 24 h [4] | % of DMSO control at 100 μM, A549, 48 h [4] | % of DMSO control at 100 μM, A549, 72 h [4] | further results |
| --- | --- | --- | --- | --- | --- | --- | --- | --- | --- | --- | --- |
| NC(=O)c1cccc(CCN(CC[C@H](N)C(=O)O)C[C@H]2O[C@@H](n3cnc4c(N)ncnc43)[C@H](O)[C@@H]2O)c1 [MS2756] | 160 µM |  |  |  |  |  |  |  |  |  |  |
| CCOC(=O)[C@H](CCN(C/C=C/c1ccc(C#N)cc1)C[C@H]1O[C@@H](n2cnc3c(N)ncnc32)[C@H](O)[C@@H]1O)NC(=O)CC(C)(C)c1c(C)cc(C)cc1OC(C)=O [NB60] |  | 79 % of DMSO control | 44 % of DMSO control | 26 % of DMSO control | 100 % of DMSO control | 50 % of DMSO control | 29 % of DMSO control | 100 % of DMSO control | 100 % of DMSO control | 76 % of DMSO control |  |
| COc1ccc(C(N)=O)cn1 [JBSNF-000088] | 2.4 µM |  |  |  |  |  |  |  |  |  | body weight (high-fat DIO mice): reduce; glucose tolerance (high-fat DIO mice): normalize; insulin sensitivity (high-fat DIO mice): improve; plasma levels of MNA (high-fat DIO mice): reduce |
| COC(=O)[C@H](CCN(C/C=C/c1ccc(C#N)cc1)C[C@H]1O[C@@H](n2cnc3c(N)ncnc32)[C@H](O)[C@@H]1O)NC(=O)CC(C)(C)c1c(C)cc(C)cc1OC(C)=O [GYZ-573] |  | 83 % of DMSO control | 69 % of DMSO control | 39 % of DMSO control | 100 % of DMSO control | 79 % of DMSO control | 62 % of DMSO control | 100 % of DMSO control | 100 % of DMSO control | 100 % of DMSO control |  |
| CCCOC(=O)[C@H](CCN(C/C=C/c1ccc(C#N)cc1)C[C@H]1O[C@@H](n2cnc3c(N)ncnc32)[C@H](O)[C@@H]1O)NC(=O)CC(C)(C)c1c(C)cc(C)cc1OC(C)=O [GYZ-580] |  | 59 % of DMSO control | 41 % of DMSO control | 16 % of DMSO control | 72 % of DMSO control | 36 % of DMSO control | 15 % of DMSO control | 83 % of DMSO control | 45 % of DMSO control | 25 % of DMSO control |  |
| NC(=O)c1cccc(CCN(CCC[C@H](N)C(=O)O)C[C@H]2O[C@@H](n3cnc4c(N)ncnc43)[C@H](O)[C@@H]2O)c1 [MS2734] | 14 µM |  |  |  |  |  |  |  |  |  |  |
| C[n+]1cccc2ccccc21 [Compound 1-MQ] | 12.1 µM |  |  |  |  |  |  |  |  |  |  |
| COC(=O)[C@@H](N)CCN(C/C=C/c1ccc(C#N)cc1)C[C@H]1O[C@@H](n2cnc3c(N)ncnc32)[C@H](O)[C@@H]1O [GYZ-494] |  | 100 % of DMSO control | 100 % of DMSO control | 87 % of DMSO control | 100 % of DMSO control | 76 % of DMSO control | 100 % of DMSO control | 100 % of DMSO control | 100 % of DMSO control | 88 % of DMSO control |  |
| Cc1cccc2ccc[n+](C)c12 [8-methyl-1-MQ] | 1.8 µM |  |  |  |  |  |  |  |  |  |  |
| CC(=O)Oc1cc(C)cc(C)c1C(C)(C)CC(=O)N[C@@H](CCN(C/C=C/c1ccc(C#N)cc1)C[C@H]1O[C@@H](n2cnc3c(N)ncnc32)[C@H](O)[C@@H]1O)C(=O)O [MH128] |  | 100 % of DMSO control | 100 % of DMSO control | 65 % of DMSO control | 100 % of DMSO control | 83 % of DMSO control | 84 % of DMSO control | 100 % of DMSO control | 100 % of DMSO control | 100 % of DMSO control |  |
| CCOC(=O)[C@@H](N)CCN(C/C=C/c1ccc(C#N)cc1)C[C@H]1O[C@@H](n2cnc3c(N)ncnc32)[C@H](O)[C@@H]1O [GYZ-552] |  | 100 % of DMSO control | 100 % of DMSO control | 73 % of DMSO control | 100 % of DMSO control | 100 % of DMSO control | 100 % of DMSO control | 100 % of DMSO control | 100 % of DMSO control | 100 % of DMSO control |  |
| CCCOC(=O)[C@@H](N)CCN(C/C=C/c1ccc(C#N)cc1)C[C@H]1O[C@@H](n2cnc3c(N)ncnc32)[C@H](O)[C@@H]1O [GYZ-579] |  | 100 % of DMSO control | 57 % of DMSO control | 63 % of DMSO control | 82 % of DMSO control | 71 % of DMSO control | 100 % of DMSO control | 100 % of DMSO control | 100 % of DMSO control | 100 % of DMSO control |  |
| N#Cc1ccc(/C=C/CN(CC[C@H](N)C(=O)O)C[C@H]2O[C@@H](n3cnc4c(N)ncnc43)[C@H](O)[C@@H]2O)cc1 [GYZ-319] |  | 100 % of DMSO control | 53 % of DMSO control | 49 % of DMSO control | 100 % of DMSO control | 79 % of DMSO control | 86 % of DMSO control | 100 % of DMSO control | 74 % of DMSO control | 66 % of DMSO control |  |
| CC(C)OC(=O)[C@@H](N)CCN(C/C=C/c1ccc(C#N)cc1)C[C@H]1O[C@@H](n2cnc3c(N)ncnc32)[C@H](O)[C@@H]1O [GYZ-553] |  | 100 % of DMSO control | 75 % of DMSO control | 56 % of DMSO control | 100 % of DMSO control | 71 % of DMSO control | 100 % of DMSO control | 100 % of DMSO control | 100 % of DMSO control | 100 % of DMSO control |  |
| Nc1ncnc2c1ncn2[C@@H]1O[C@H](CN(CC[C@H](N)C(=O)O)Cc2cccc(C(F)(F)F)c2)[C@@H](O)[C@H]1O [GYZ-416] |  |  |  |  |  |  |  |  |  |  | IC50 (NNMT [5]; IC50 values (nM), Table 3, 1-carbon alkyl linkers): 6580 nM; IC50 (NNMT [5]; IC50 values (μM), Table 3, 1-carbon alkyl linkers): 6580 nM |
| Nc1ncnc2c1ncn2[C@@H]1O[C@H](CN(C/C=C/c2c(F)c(F)cc(F)c2F)CC[C@H](N)C(=O)O)[C@@H](O)[C@H]1O [MH612] |  |  |  |  |  |  |  |  |  |  | IC50 (NNMT [5]; IC50 values (nM), Table 1, alkene linked aromatics): 1810 nM; IC50 (NNMT [5]; IC50 values (μM), Table 1, alkene linked aromatics): 1810 nM |
